Earlier results as cited in patent US20110251195A1, “ADRB2 GENE PO[…] INTRAOCULAR PRESSURE RESPONSE TO TOPICAL BETA-BLOCKERS” (Marshfield Clinic, priority 2008, published 2011).

Tested on: ADRB2 gene product (Gln27 / Glu27)
Settings: Glu27 versus Gln27 ADRB2 variant

## CC(C)NCC(O)c1ccc(O)c(O)c1 (stereo not shown) [isoprenaline]
  fold greater isoprenaline concentration necessary to down-regulate Glu27 to the same extent as Gln27: 60 fold
